# Earlier results as cited in patent US20120003119A1, “ANTIMICROBIAL PEPTIDES” (priority 2007, published 2012).
# Assays:
# Pseudomonas aeruginosa = conditions: tested against the bacteria Pseudomonas aeruginosa; relative to XPF
# [1] = combined with either magainin I or magainin II in a 1:1 molar ratio
# animal red blood cells = conditions: melittin isolated from bee venom
Compound,times more active than XPF (Pseudomonas aeruginosa),antimicrobial activity increased [1],lytic to both microorganisms and animal red blood cells (animal red blood cells)
PGLa,4-5 times,20-50 fold,–
CC[C@H](C)[C@H](NC(=O)CN)C(=O)NCC(=O)N[C@@H](C)C(=O)N[C@H](C(=O)N[C@@H](CC(C)C)C(=O)N[C@@H](CCCCN)C(=O)N[C@H](C(=O)N[C@@H](CC(C)C)C(=O)N[C@H](C(=O)N[C@H](C(=O)NCC(=O)N[C@@H](CC(C)C)C(=O)N1CCC[C@H]1C(=O)N[C@@H](C)C(=O)N[C@@H](CC(C)C)C(=O)N[C@H](C(=O)N[C@@H](CO)C(=O)N[C@@H](Cc1c[nH]c2ccccc12)C(=O)N[C@H](C(=O)N[C@@H](CCCCN)C(=O)N[C@@H](CCCNC(=N)N)C(=O)N[C@@H](CCCCN)C(=O)N[C@@H](CCCNC(=N)N)C(=O)N[C@@H](CCC(N)=O)C(=O)N[C@@H](CCC(N)=O)C(N)=O)[C@@H](C)CC)[C@@H](C)CC)[C@@H](C)O)[C@@H](C)O)C(C)C)C(C)C [melittin],–,–,very lytic
